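Growth conditions: 96-well plates. Treatment: test compound, 48 hours, 5 concentrations. Analysis: linear interpolation between bracketing concentrations; unreached endpoints set to highest concentration. GI50: concentration for 50% inhibition of growth.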 Calls of active or inactive are those of the source. Rule as the data show it: active = GI50 up to about 1.1 µM and inactive = higher. Bridge positions count the residues as written; N and C are the ends. Square brackets hold non-standard residues; d marks the D form. Peptide text beside a SMILES is read from it. I, II: the chains in the order shown. * marks the point of attachment. Quinoxaline2carbonyl = O=C(c1cnc2ccccc2n1)*; NMeV = CN[CH](C(=O)O)C(C)C; NMeC = CN[CH](CS)C(=O)O
Key:
Assay in all cases: growth of human tumour cells (NCI), 48 h
786-0 = tested on: 786-0
CAKI-1 = tested on: CAKI-1
DU-145 = tested on: DU-145
HCT-116 = tested on: HCT-116
HCT-15 = tested on: HCT-15
HT-29 = tested on: HT-29
Hs-578T = tested on: Hs-578T
KM12 = tested on: KM12
LOX IMVI = tested on: LOX IMVI
MDA-MB-231 = tested on: MDA-MB-231
MOLT-4 = tested on: MOLT-4
NCI-H460 = tested on: NCI-H460
NCI/ADR-RES = tested on: NCI/ADR-RES
OVCAR-5 = tested on: OVCAR-5
OVCAR-8 = tested on: OVCAR-8
RPMI-8226 = tested on: RPMI-8226
SF-268 = tested on: SF-268
SN12C = tested on: SN12C
SW-620 = tested on: SW-620
UACC-257 = tested on: UACC-257

Row | SMILES | GI50 (786-0) | GI50 (CAKI-1) | GI50 (DU-145) | GI50 (HCT-116) | GI50 (HCT-15) | GI50 (HT-29) | GI50 (Hs-578T) | GI50 (KM12) | GI50 (LOX IMVI) | GI50 (MDA-MB-231) | GI50 (MOLT-4) | GI50 (NCI-H460) | GI50 (NCI/ADR-RES) | GI50 (OVCAR-5) | GI50 (OVCAR-8) | GI50 (RPMI-8226) | GI50 (SF-268) | GI50 (SN12C) | GI50 (SW-620) | GI50 (UACC-257)
1 | CC1=CC(=O)c2ccccc2C1=O [MENADIONE] | 14.6 µM (inactive) | 16.1 µM (inactive) | 15.9 µM (inactive) | 2 µM (inactive) | 3.42 µM | 17.9 µM (inactive) | 10.7 µM (inactive) | 10.7 µM (inactive) | 2.04 µM (inactive) | 5.06 µM (inactive) | 1.77 µM (inactive) | 11.5 µM (inactive) | 11.9 µM (inactive) | 11.8 µM (inactive) | 10.1 µM (inactive) | 1.72 µM (inactive) | 7.52 µM (inactive) | 12.4 µM (inactive) | 2.14 µM (inactive) | 4.17 µM (inactive)
2 | CCCN(CCC)C(=S)N/N=C/c1cccc(C)n1 | 0.0237 µM (active) | 0.382 µM (active) | 0.321 µM (active) | < 0.01 µM (active) | 0.0438 µM | < 0.01 µM (active) | 2.16 µM (inactive) | 0.107 µM (active) | 0.141 µM (active) | < 0.01 µM (active) | < 0.01 µM (active) | 0.159 µM (active) | < 0.01 µM (active) | < 0.01 µM (active) | 0.0217 µM (active) | 0.0239 µM (active) | 0.023 µM (active) | 0.122 µM (active) | 0.054 µM (active) | < 0.01 µM (active)
3 | CC1NC(=O)C(NC(=O)c2cnc3ccccc3n2)COC(=O)C(C(C)C)N(C)C(=O)C2CSSCC(C(=O)N(C)C(C(C)C)C(=O)OCC(NC(=O)c3cnc4ccccc4n3)C(=O)NC(C)C(=O)N2C)N(C)C1=O (stereo not given) (I: Quinoxaline2carbonyl-SA[NMeC][NMeV] / II: Quinoxaline2carbonyl-SA[NMeC][NMeV]; ester I:1-II:C, I:C-II:1; disulfide I:3-II:3; configuration not given here) | < 0.01 µM (active) | < 0.01 µM (active) | < 0.01 µM (active) | < 0.01 µM (active) | < 0.01 µM | < 0.01 µM (active) | < 0.01 µM (active) | < 0.01 µM (active) | < 0.01 µM (active) | < 0.01 µM (active) | < 0.01 µM (active) | < 0.01 µM (active) | < 0.01 µM (active) | < 0.01 µM (active) | < 0.01 µM (active) | < 0.01 µM (active) | < 0.01 µM (active) | < 0.01 µM (active) | < 0.01 µM (active) | < 0.01 µM (active)
4 | C/C(=N/Nc1nc(C)cc(O)n1)C(=O)O | > 100 µM (inactive) | > 100 µM (inactive) | > 100 µM (inactive) | > 100 µM (inactive) | > 100 µM | > 100 µM (inactive) | > 100 µM (inactive) | > 100 µM (inactive) | > 100 µM (inactive) | > 100 µM (inactive) | > 100 µM (inactive) | > 100 µM (inactive) | > 100 µM (inactive) | > 100 µM (inactive) | > 100 µM (inactive) | > 100 µM (inactive) | > 100 µM (inactive) | 19 µM (inactive) | > 100 µM (inactive) | > 100 µM (inactive)
5 | COC(=O)NC1=NNC(=O)c2ccccc2N1 | > 100 µM (inactive) | > 100 µM (inactive) | > 100 µM (inactive) | > 100 µM (inactive) | > 100 µM | > 100 µM (inactive) | > 100 µM (inactive) | > 100 µM (inactive) | > 100 µM (inactive) | > 100 µM (inactive) | > 100 µM (inactive) | > 100 µM (inactive) | > 100 µM (inactive) | > 100 µM (inactive) | > 100 µM (inactive) | > 100 µM (inactive) | > 100 µM (inactive) | > 100 µM (inactive) | > 100 µM (inactive) | > 100 µM (inactive)
6 | Cc1ccc(C(=O)N(C(C)C)C(C)C)cc1/N=N/N(C)C | > 100 µM (inactive) | > 100 µM (inactive) | > 100 µM (inactive) | > 75.9 µM (inactive) | > 82.6 µM | 74.1 µM (inactive) | 96.6 µM (inactive) | 45.2 µM (inactive) | > 31.6 µM (inactive) | > 100 µM (inactive) | 45.3 µM (inactive) | > 100 µM (inactive) | > 100 µM (inactive) | > 100 µM (inactive) | > 100 µM (inactive) | 33 µM (inactive) | > 51.6 µM (inactive) | > 100 µM (inactive) | > 92.3 µM (inactive) | 57.4 µM (inactive)
7 | Cc1nc2ccccc2nc1-c1ccc(/N=[N+](\[O-])c2ccc(-c3nc4ccccc4nc3C)cc2)cc1 | 45.5 µM (inactive) | > 100 µM (inactive) | > 94.4 µM (inactive) | > 79.8 µM (inactive) | > 100 µM | > 100 µM (inactive) | 27.5 µM (inactive) | > 100 µM (inactive) | > 100 µM (inactive) | 24.2 µM (inactive) | > 100 µM (inactive) | > 100 µM (inactive) | > 64.9 µM (inactive) | > 100 µM (inactive) | 50.1 µM (inactive) | > 100 µM (inactive) | 36.6 µM (inactive) | > 92.7 µM (inactive) | > 100 µM (inactive) | > 100 µM (inactive)
8 | CC(C)C(Br)C(=O)NCC(=O)O (stereo not given) | > 100 µM (inactive) | > 100 µM (inactive) | > 100 µM (inactive) | > 100 µM (inactive) | > 100 µM | > 100 µM (inactive) | > 100 µM (inactive) | > 100 µM (inactive) | > 100 µM (inactive) | > 100 µM (inactive) | > 100 µM (inactive) | > 100 µM (inactive) | > 100 µM (inactive) | > 100 µM (inactive) | > 100 µM (inactive) | > 100 µM (inactive) | > 100 µM (inactive) | > 100 µM (inactive) | > 100 µM (inactive) | > 100 µM (inactive)
9 | Cn1nnc2c(C(N)=S)ncn2c1=O | > 100 µM (inactive) | > 100 µM (inactive) | > 100 µM (inactive) | > 100 µM (inactive) | > 100 µM | > 100 µM (inactive) | > 100 µM (inactive) | > 100 µM (inactive) | > 100 µM (inactive) | > 100 µM (inactive) | > 100 µM (inactive) | > 100 µM (inactive) | > 100 µM (inactive) | > 100 µM (inactive) | > 100 µM (inactive) | > 100 µM (inactive) | > 100 µM (inactive) | > 100 µM (inactive) | > 100 µM (inactive) | > 100 µM (inactive)
10 | CCOC(=O)CCC(NC(=O)C(N)Cc1ccc(N(CCCl)CCCl)cc1)C(=O)OCC (stereo not given) | 0.475 µM (active) | 0.327 µM (active) | 0.249 µM (active) | 0.375 µM (active) | 0.538 µM | 0.716 µM (active) | 2.24 µM (inactive) | 1.52 µM (inactive) | 0.187 µM (active) | 1.69 µM (inactive) | 0.0451 µM (active) | 0.0406 µM (active) | 1.33 µM (inactive) | 2.47 µM (inactive) | 0.867 µM (active) | 1.82 µM (inactive) | 0.592 µM (active) | 1.51 µM (inactive) | 1.29 µM (inactive) | 1.22 µM (inactive)
11 | CC(=O)c1ccc2c(c1)CC1(C2)Cc2cc3c(c(C(=O)O)c2C1)CCC3 (stereo not given) | > 100 µM (inactive) | > 100 µM (inactive) | > 100 µM (inactive) | > 100 µM (inactive) | > 100 µM | > 100 µM (inactive) | 33 µM (inactive) | > 100 µM (inactive) | > 100 µM (inactive) | > 100 µM (inactive) | > 100 µM (inactive) | 64.6 µM (inactive) | 80.5 µM (inactive) | > 100 µM (inactive) | > 100 µM (inactive) | 63.7 µM (inactive) | > 100 µM (inactive) | > 100 µM (inactive) | > 100 µM (inactive) | > 100 µM (inactive)
12 | O=C(O)CNC(=O)c1ccc2cc(C(=O)N3CC(CCl)c4ccc([N+](=O)[O-])cc43)[nH]c2c1 (stereo not given) | > 100 µM (inactive) | > 100 µM (inactive) | > 100 µM (inactive) | > 100 µM (inactive) | > 100 µM | > 100 µM (inactive) | > 100 µM (inactive) | > 100 µM (inactive) | > 100 µM (inactive) | > 100 µM (inactive) | > 100 µM (inactive) | > 100 µM (inactive) | > 100 µM (inactive) | > 100 µM (inactive) | > 100 µM (inactive) | > 100 µM (inactive) | > 100 µM (inactive) | > 100 µM (inactive) | > 100 µM (inactive) | > 100 µM (inactive)

Source: ChEMBL document CHEMBL1201862, “PubChem BioAssay data set” (2004)
